Measurements reported in patent US12077503B2, “Substituted cyclic amides and their use as herbicides” (FMC CORPORATION, priority 2015, dated 2024).

Key:
Format in all cases: in vivo
[1] = tested on: corn (Zea mays); test: Test G Post-Emergence Protocol; settings: Zea mays, post-emergence, 312 h; for plant injury at 15.625 g/ha: 15.625 g ai/ha, evaluated after 13 days (100=total damage to plant; 0=no damage to plant), read-out: Corn damage rating; for plant injury at 62.5 g/ha: 62.5 g ai/ha, read-out: Corn damage rating (100=total damage to plant; 0=no damage to plant); for plant injury at 62.5 g/ha / plant injury at 250 g/ha: evaluated after 13 days; for plant injury at 250 g/ha: 250 g ai/ha, read-out: damage to plant, Corn (100=total damage to plant; 0=no damage to plant)
Method in brief: (§1)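 Damage was rated 13 days after treatment from 0 (none) to 100 (plant killed). Compound was applied as a spray at 15.625, 62.5 or 250 g/ha in 50:50 acetone/water containing 0.5% Tween 20, onto 8-day-old potted plants kept in a glasshouse (24/16 °C, 14 h light, 65% humidity).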

[2] = tested on: ivy-leaved morning glory (Ipomoea hederacea); test: Test G Post-Emergence Protocol; settings: Ipomoea, post-emergence, 312 h; for pest or weed control at 15.625 g/ha: 15.625 g ai/ha, evaluated after 13 days (100=total damage to plant; 0=no damage to plant), read-out: Morningglory, Ivy-leaved damage rating; for pest or weed control at 62.5 g/ha: 62.5 g ai/ha, read-out: Morningglory, Ivy-leaved damage rating (100=total damage to plant; 0=no damage to plant); for pest or weed control at 62.5 g/ha / pest or weed control at 250 g/ha: evaluated after 13 days; for pest or weed control at 250 g/ha: 250 g ai/ha, read-out: damage to plant, Morningglory, Ivy-leaved (100=total damage to plant; 0=no damage to plant)
Method in brief: as §1

[3] = tested on: redroot pigweed (Amaranthus retroflexus); test: Test G Post-Emergence Protocol; settings: Amaranthus retroflexus, post-emergence, 312 h; for pest or weed control at 15.625 g/ha: 15.625 g ai/ha, evaluated after 13 days (100=total damage to plant; 0=no damage to plant), read-out: Pigweed, Redroot damage rating; for pest or weed control at 62.5 g/ha: 62.5 g ai/ha, read-out: Pigweed, Redroot damage rating (100=total damage to plant; 0=no damage to plant); for pest or weed control at 62.5 g/ha / pest or weed control at 250 g/ha: evaluated after 13 days; for pest or weed control at 250 g/ha: 250 g ai/ha, read-out: damage to plant, Pigweed, Redroot (100=total damage to plant; 0=no damage to plant)
Method in brief: as §1

[4] = tested on: barnyardgrass (Echinochloa crus-galli); test: Test G Post-Emergence Protocol; settings: Echinochloa crus-galli, post-emergence, 312 h; for pest or weed control at 15.625 g/ha: 15.625 g ai/ha, evaluated after 13 days (100=total damage to plant; 0=no damage to plant), read-out: Barnyardgrass damage rating; for pest or weed control at 62.5 g/ha: 62.5 g ai/ha, read-out: Barnyardgrass damage rating (100=total damage to plant; 0=no damage to plant); for pest or weed control at 62.5 g/ha / pest or weed control at 250 g/ha: evaluated after 13 days; for pest or weed control at 250 g/ha: 250 g ai/ha, read-out: damage to plant, Barnyardgrass (100=total damage to plant; 0=no damage to plant)
Method in brief: as §1

[5] = tested on: velvetleaf (Abutilon theophrasti); test: Test G Post-Emergence Protocol; settings: Abutilon theophrasti, post-emergence, 312 h; for pest or weed control at 15.625 g/ha: 15.625 g ai/ha, evaluated after 13 days (100=total damage to plant; 0=no damage to plant), read-out: Velvetleaf damage rating; for pest or weed control at 62.5 g/ha: 62.5 g ai/ha, read-out: Velvetleaf damage rating (100=total damage to plant; 0=no damage to plant); for pest or weed control at 62.5 g/ha / pest or weed control at 250 g/ha: evaluated after 13 days; for pest or weed control at 250 g/ha: 250 g ai/ha, read-out: damage to plant, Velvetleaf (100=total damage to plant; 0=no damage to plant)
Method in brief: as §1

[6] = tested on: giant foxtail (Setaria faberi); test: Test G Post-Emergence Protocol; settings: Setaria faberi, post-emergence, 312 h; for pest or weed control at 15.625 g/ha: 15.625 g ai/ha, evaluated after 13 days (100=total damage to plant; 0=no damage to plant), read-out: Foxtail, Giant damage rating; for pest or weed control at 62.5 g/ha: 62.5 g ai/ha, read-out: Foxtail, Giant damage rating (100=total damage to plant; 0=no damage to plant); for pest or weed control at 62.5 g/ha / pest or weed control at 250 g/ha: evaluated after 13 days; for pest or weed control at 250 g/ha: 250 g ai/ha, read-out: damage to plant, Foxtail, Giant (100=total damage to plant; 0=no damage to plant)
Method in brief: as §1

[7] = tested on: corn (Zea mays); test: Test G Pre-Emergence Protocol; settings: Zea mays, pre-emergence, 312 h, evaluated after 13 days; for plant injury at 15.625 g/ha: 15.625 g ai/ha; for plant injury at 15.625 g/ha / plant injury at 250 g/ha: read-out: Corn damage rating (100=total damage to plant; 0=no damage to plant); for plant injury at 62.5 g/ha: 62.5 g ai/ha, 100=total damage to plant, 0=no damage to plant, read-out: plant damage rating, Corn; for plant injury at 250 g/ha: 250 g ai/ha
Method in brief: (§2)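 Test compound in 0.5% Tween 20 acetone/water (50:50) was applied at three rates (15.625, 62.5, 250 g/ha) to soil sown one day earlier. After 13 days plants were scored for injury, where 0 means unaffected and 100 means completely damaged.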

[8] = tested on: ivy-leaved morning glory (Ipomoea hederacea); test: Test G Pre-Emergence Protocol; settings: Ipomoea, pre-emergence, 312 h, evaluated after 13 days; for pest or weed control at 15.625 g/ha: 15.625 g ai/ha, read-out: Morning-glory, Ivy-leaved damage rating (100=total damage to plant; 0=no damage to plant); for pest or weed control at 62.5 g/ha: 62.5 g ai/ha, 100=total damage to plant, 0=no damage to plant, read-out: plant damage rating, Morningglory, Ivy-leaved; for pest or weed control at 250 g/ha: 250 g ai/ha, read-out: Morningglory, Ivy-leaved damage rating (100=total damage to plant; 0=no damage to plant)
Method in brief: as §2

[9] = tested on: redroot pigweed (Amaranthus retroflexus); test: Test G Pre-Emergence Protocol; settings: Amaranthus retroflexus, pre-emergence, 312 h, evaluated after 13 days; for pest or weed control at 15.625 g/ha: 15.625 g ai/ha; for pest or weed control at 15.625 g/ha / pest or weed control at 250 g/ha: read-out: Pigweed, Redroot damage rating (100=total damage to plant; 0=no damage to plant); for pest or weed control at 62.5 g/ha: 62.5 g ai/ha, 100=total damage to plant, 0=no damage to plant, read-out: plant damage rating, Pigweed, Redroot; for pest or weed control at 250 g/ha: 250 g ai/ha
Method in brief: as §2

[10] = tested on: barnyardgrass (Echinochloa crus-galli); test: Test G Pre-Emergence Protocol; settings: Echinochloa crus-galli, pre-emergence, 312 h, evaluated after 13 days; for pest or weed control at 15.625 g/ha: 15.625 g ai/ha, read-out: Barnyard grass damage rating (100=total damage to plant; 0=no damage to plant); for pest or weed control at 62.5 g/ha: 62.5 g ai/ha, 100=total damage to plant, 0=no damage to plant, read-out: plant damage rating, Barnyardgrass; for pest or weed control at 250 g/ha: 250 g ai/ha, read-out: Barnyardgrass damage rating (100=total damage to plant; 0=no damage to plant)
Method in brief: as §2

[11] = tested on: velvetleaf (Abutilon theophrasti); test: Test G Pre-Emergence Protocol; settings: Abutilon theophrasti, pre-emergence, 312 h, evaluated after 13 days; for pest or weed control at 15.625 g/ha: 15.625 g ai/ha; for pest or weed control at 15.625 g/ha / pest or weed control at 250 g/ha: read-out: Velvetleaf damage rating (100=total damage to plant; 0=no damage to plant); for pest or weed control at 62.5 g/ha: 62.5 g ai/ha, 100=total damage to plant, 0=no damage to plant, read-out: plant damage rating, Velvetleaf; for pest or weed control at 250 g/ha: 250 g ai/ha
Method in brief: as §2

[12] = tested on: giant foxtail (Setaria faberi); test: Test G Pre-Emergence Protocol; settings: Setaria faberi, pre-emergence, 312 h, evaluated after 13 days; for pest or weed control at 15.625 g/ha: 15.625 g ai/ha; for pest or weed control at 15.625 g/ha / pest or weed control at 250 g/ha: read-out: Foxtail, Giant damage rating (100=total damage to plant; 0=no damage to plant); for pest or weed control at 62.5 g/ha: 62.5 g ai/ha, 100=total damage to plant, 0=no damage to plant, read-out: plant damage rating, Foxtail, Giant; for pest or weed control at 250 g/ha: 250 g ai/ha
Method in brief: as §2

SMILES	plant injury at 15.625 g/ha [1]	plant injury at 62.5 g/ha [1]	plant injury at 250 g/ha [1]	pest or weed control at 15.625 g/ha [2]	pest or weed control at 62.5 g/ha [2]	pest or weed control at 250 g/ha [2]	pest or weed control at 15.625 g/ha [3]	pest or weed control at 62.5 g/ha [3]	pest or weed control at 250 g/ha [3]	pest or weed control at 15.625 g/ha [4]	pest or weed control at 62.5 g/ha [4]	pest or weed control at 250 g/ha [4]	pest or weed control at 15.625 g/ha [5]	pest or weed control at 62.5 g/ha [5]	pest or weed control at 250 g/ha [5]	pest or weed control at 15.625 g/ha [6]	pest or weed control at 62.5 g/ha [6]	pest or weed control at 250 g/ha [6]	plant injury at 15.625 g/ha [7]	plant injury at 62.5 g/ha [7]	other results
CN1C[C@@H](c2ccc(C(F)(F)F)cc2)[C@H](C(=O)Nc2nnc(C(F)(F)F)s2)C1=O (racemic) [Compound 1548]	0%	0%	0%	0%	0%	0%	0%	0%	0%	0%	0%	0%	0%	0%	0%	0%	0%	0%	0%	0%	plant injury at 250 g/ha [7]: 0%; pest or weed control at 15.625 g/ha [8]: 0%; pest or weed control at 62.5 g/ha [8]: 0%; pest or weed control at 250 g/ha [8]: 0%; pest or weed control at 15.625 g/ha [9]: 0%; pest or weed control at 62.5 g/ha [9]: 0%; pest or weed control at 250 g/ha [9]: 0%; pest or weed control at 15.625 g/ha [10]: 0%; pest or weed control at 62.5 g/ha [10]: 0%; pest or weed control at 250 g/ha [10]: 0%; pest or weed control at 15.625 g/ha [11]: 0%; pest or weed control at 62.5 g/ha [11]: 0%; pest or weed control at 250 g/ha [11]: 0%; pest or weed control at 15.625 g/ha [12]: 0%; pest or weed control at 62.5 g/ha [12]: 0%; pest or weed control at 250 g/ha [12]: 0%
Cc1nnc(NC(=O)[C@@H]2C(=O)N(C)C[C@H]2c2ccc(C(F)(F)F)cc2)nc1C (racemic) [Compound 1549]	0%	0%	0%	0%	0%	0%	0%	0%	0%	0%	0%	0%	0%	0%	0%	0%	0%	0%	0%	0%	plant injury at 250 g/ha [7]: 0%; pest or weed control at 15.625 g/ha [8]: 0%; pest or weed control at 62.5 g/ha [8]: 0%; pest or weed control at 250 g/ha [8]: 0%; pest or weed control at 15.625 g/ha [9]: 0%; pest or weed control at 62.5 g/ha [9]: 0%; pest or weed control at 250 g/ha [9]: 0%; pest or weed control at 15.625 g/ha [10]: 0%; pest or weed control at 62.5 g/ha [10]: 0%; pest or weed control at 250 g/ha [10]: 0%; pest or weed control at 15.625 g/ha [11]: 0%; pest or weed control at 62.5 g/ha [11]: 0%; pest or weed control at 250 g/ha [11]: 0%; pest or weed control at 15.625 g/ha [12]: 0%; pest or weed control at 62.5 g/ha [12]: 0%; pest or weed control at 250 g/ha [12]: 0%
CN1C[C@@H](c2ccc(C(F)(F)F)cc2)[C@H](C(=O)Nc2nccnc2Cl)C1=O (racemic) [Compound 1552]	10%	10%	10%	0%	0%	0%	0%	0%	0%	0%	0%	0%	0%	0%	0%	0%	0%	0%	0%	0%	plant injury at 250 g/ha [7]: 0%; pest or weed control at 15.625 g/ha [8]: 0%; pest or weed control at 62.5 g/ha [8]: 0%; pest or weed control at 250 g/ha [8]: 0%; pest or weed control at 15.625 g/ha [9]: 0%; pest or weed control at 62.5 g/ha [9]: 0%; pest or weed control at 250 g/ha [9]: 0%; pest or weed control at 15.625 g/ha [10]: 0%; pest or weed control at 62.5 g/ha [10]: 0%; pest or weed control at 250 g/ha [10]: 0%; pest or weed control at 15.625 g/ha [11]: 0%; pest or weed control at 62.5 g/ha [11]: 0%; pest or weed control at 250 g/ha [11]: 0%; pest or weed control at 15.625 g/ha [12]: 0%; pest or weed control at 62.5 g/ha [12]: 0%; pest or weed control at 250 g/ha [12]: 0%
